Several values for one entry are separate records, joined by “and”; a condition that tells them apart may be missing. Equal values may be shown once. Toxic doses and inconclusive results are not listed.
Tested on: BDF1 mice, L1210 Methyl-GAG-resistant leukemia, survival T/C
Experiment: NCI In Vivo Anticancer Drug Screen. Data for tumor model L1210 Leukemia resistant to Methyl-GAG; NSC 32946 (subcutaneous) in B6D2F1 (BDF1) mice
Conditions: endpoint: mean survival time, higher = longer survival
Experimental: The antitumor activity of compounds was measured in mice bearing transplantable tumors. Survival or tumor size were measured and the results are expressed as the measurement made in the treated group (T) divided by the measurement made in the vehicle treated control group (C). The tumor model used in this assay is L1210 Leukemia resistant to Methyl-GAG; NSC 32946 (subcutaneous) in B6D2F1 (BDF1) mice

[1] = dose: 25.0 mg/kg/injection, schedule: Q01DX Z (sc), vehicle: steriod suspending solution
[2] = dose: 50.0 mg/kg/injection, schedule: Q01DX Z (sc), vehicle: steriod suspending solution
[3] = dose: 100.0 mg/kg/injection, schedule: Q01DX Z (sc), vehicle: steriod suspending solution
[4] = dose: 200.0 mg/kg/injection, schedule: Q01DX Z (sc), vehicle: steriod suspending solution
[5] = dose: 400.0 mg/kg/injection, schedule: Q01DX Z (sc), vehicle: steriod suspending solution
[6] = dose: 800.0 mg/kg/injection, schedule: Q01DX Z (sc), vehicle: steriod suspending solution
[7] = dose: 25.0 mg/kg/injection, schedule: Q01DX Z (ip), vehicle: carboxymethylcellulose (CMC)
[8] = dose: 100.0 mg/kg/injection, schedule: Q01DX Z (ip), vehicle: carboxymethylcellulose (CMC)
[9] = dose: 200.0 mg/kg/injection, schedule: Q01DX Z (ip), vehicle: carboxymethylcellulose (CMC)
[10] = dose: 125.0 mg/kg/injection, schedule: Q01DX Z (ip), vehicle: saline
[11] = dose: 250.0 mg/kg/injection, schedule: Q01DX Z (ip), vehicle: saline
[12] = dose: 500.0 mg/kg/injection, schedule: Q01DX Z (ip), vehicle: saline
[13] = dose: 1000.0 mg/kg/injection, schedule: Q01DX Z (ip), vehicle: saline

SMILES: S=c1nc[nH]c2nc[nH]c12
- T/C (dose: 12.5 mg/kg/injection, schedule: Q01DX Z (ip), vehicle: other): 107 % of control
- T/C (dose: 37.5 mg/kg/injection, schedule: Q01DX Z (ip), vehicle: other): 252 % of control
- T/C (dose: 50.0 mg/kg/injection, schedule: Q01DX Z (ip), vehicle: other): 153 % of control and 192 % of control
- T/C (dose: 75.0 mg/kg/injection, schedule: Q01DX Z (ip), vehicle: other): 157 % of control
- T/C (dose: 100.0 mg/kg/injection, schedule: Q01DX Z (ip), vehicle: other): 164 % of control
- T/C (dose: 200.0 mg/kg/injection, schedule: Q01DX Z (ip), vehicle: other): 97 % of control and 119 % of control
- T/C (dose: 300.0 mg/kg/injection, schedule: Q01DX Z (ip), vehicle: other): 98 % of control

SMILES: Clc1ccc(C(c2ccccc2Cl)C(Cl)Cl)cc1 (centres undefined)
- T/C (dose: 12.5 mg/kg/injection, schedule: Q01DX Z (sc), vehicle: steriod suspending solution): 105 % of control
- T/C [1]: 102 % of control
- T/C [2]: 98 % of control
- T/C [3]: 100 % of control
- T/C [4]: 105 % of control
- T/C [5]: 101 % of control
- T/C [6]: 109 % of control

SMILES: CCN(CC)C(=S)S
- T/C (dose: 125.0 mg/kg/injection, schedule: Q01DX Z (ip), vehicle: other): 96 % of control
- T/C (dose: 250.0 mg/kg/injection, schedule: Q01DX Z (ip), vehicle: other): 92 % of control
- T/C (dose: 500.0 mg/kg/injection, schedule: Q01DX Z (ip), vehicle: other): 96 % of control
- T/C (dose: 1000.0 mg/kg/injection, schedule: Q01DX Z (ip), vehicle: other): 104 % of control and 114 % of control

SMILES: [I][Hg][CH2]C1COC([CH2][Hg][I])CO1 (centres undefined)
- T/C (dose: 1.9 mg/kg/injection, schedule: Q01DX Z (ip), vehicle: carboxymethylcellulose (CMC)): 102 % of control
- T/C (dose: 3.75 mg/kg/injection, schedule: Q01DX Z (ip), vehicle: carboxymethylcellulose (CMC)): 95 % of control
- T/C (dose: 7.5 mg/kg/injection, schedule: Q01DX Z (ip), vehicle: carboxymethylcellulose (CMC)): 102 % of control
- T/C (dose: 15.0 mg/kg/injection, schedule: Q01DX Z (ip), vehicle: carboxymethylcellulose (CMC)): 113 % of control
- T/C (dose: 30.0 mg/kg/injection, schedule: Q01DX Z (ip), vehicle: carboxymethylcellulose (CMC)): 150 % of control
- T/C (dose: 60.0 mg/kg/injection, schedule: Q01DX Z (ip), vehicle: carboxymethylcellulose (CMC)): 107 % of control

SMILES: O=c1[nH]c(=O)n(C2CC(O)C(CO)O2)cc1F (centres undefined)
- T/C [7]: 112 % of control
- T/C [8]: 121 % of control
- T/C [9]: 87 % of control and 103 % of control

SMILES: CC(=O)[C@H]1CC[C@H]2[C@@H]3C[C@H](C)C4=CC(=O)CC[C@]4(C)[C@H]3C(=O)C[C@]12C
- T/C [1]: 97 % of control
- T/C [2]: 95 % of control and 103 % of control
- T/C [3]: 97 % of control and 103 % of control and 114 % of control
- T/C [4]: 90 % of control and 105 % of control and 111 % of control
- T/C [5]: 105 % of control and 112 % of control
- T/C [6]: 120 % of control

SMILES: O=C(Nc1ccc(C2=NCCCN2)cc1)c1ccc(C(=O)Nc2ccc(C3=NCCCN3)cc2)cc1
- T/C (dose: 0.2 mg/kg/injection, schedule: Q01DX Z (ip), vehicle: water): 100 % of control
- T/C (dose: 0.4 mg/kg/injection, schedule: Q01DX Z (ip), vehicle: water): 108 % of control
- T/C (dose: 0.8 mg/kg/injection, schedule: Q01DX Z (ip), vehicle: water): 121 % of control
- T/C (dose: 1.6 mg/kg/injection, schedule: Q01DX Z (ip), vehicle: water): 158 % of control and 211 % of control
- T/C (dose: 3.1 mg/kg/injection, schedule: Q01DX Z (ip), vehicle: water): 212 % of control

SMILES: CCOC(N)=O
- T/C [10]: 99 % of control
- T/C [11]: 89 % of control
- T/C [12]: 101 % of control
- T/C [13]: 90 % of control

SMILES: NC(=O)c1ccc(N)nc1
- T/C (dose: 0.31 mg/kg/injection, schedule: Q01DX Z (ip), vehicle: saline): 106 % of control
- T/C (dose: 0.31 mg/kg/injection, schedule: Q01DX Z (ip), vehicle: water): 102 % of control
- T/C (dose: 0.63 mg/kg/injection, schedule: Q01DX Z (ip), vehicle: saline): 101 % of control
- T/C (dose: 0.63 mg/kg/injection, schedule: Q01DX Z (ip), vehicle: water): 115 % of control
- T/C (dose: 1.25 mg/kg/injection, schedule: Q01DX Z (ip), vehicle: saline): 98 % of control

SMILES: CC(=O)O[C@]1(C(C)=O)CC[C@H]2[C@@H]3C[C@H](C)C4=CC(=O)C=C[C@]4(C)[C@@]3(F)[C@@H](O)C[C@@]21C
- T/C (dose: 10.0 mg/kg/injection, schedule: Q01DX Z (sc), vehicle: steriod suspending solution): 102 % of control
- T/C (dose: 20.0 mg/kg/injection, schedule: Q01DX Z (sc), vehicle: steriod suspending solution): 105 % of control
- T/C (dose: 40.0 mg/kg/injection, schedule: Q01DX Z (sc), vehicle: steriod suspending solution): 121 % of control
- T/C (dose: 80.0 mg/kg/injection, schedule: Q01DX Z (sc), vehicle: steriod suspending solution): 114 % of control
- T/C (dose: 160.0 mg/kg/injection, schedule: Q01DX Z (sc), vehicle: steriod suspending solution): 121 % of control
- T/C (dose: 320.0 mg/kg/injection, schedule: Q01DX Z (sc), vehicle: steriod suspending solution): 115 % of control

SMILES: C[C@]12C=CC(=O)C=C1CC[C@@H]1[C@@H]2C(=O)C[C@@]2(C)[C@H]1CC[C@]2(O)C(=O)CO
- T/C [1]: 91 % of control and 115 % of control
- T/C [2]: 103 % of control
- T/C [3]: 150 % of control
- T/C [4]: 115 % of control
- T/C [5]: 112 % of control and 118 % of control

SMILES: O=C1C(NC(=O)C2CCCCC2)=C(N2CC2)C(=O)C(NC(=O)C2CCCCC2)=C1N1CC1
- T/C [7]: 100 % of control
- T/C (dose: 50.0 mg/kg/injection, schedule: Q01DX Z (ip), vehicle: carboxymethylcellulose (CMC)): 96 % of control
- T/C [8]: 114 % of control
- T/C [9]: 108 % of control and 118 % of control
- T/C (dose: 400.0 mg/kg/injection, schedule: Q01DX Z (ip), vehicle: carboxymethylcellulose (CMC)): 120 % of control
- T/C (dose: 800.0 mg/kg/injection, schedule: Q01DX Z (ip), vehicle: carboxymethylcellulose (CMC)): 104 % of control

SMILES: Nc1nc(SCc2ccccc2)c2[nH]cnc2n1
- T/C (dose: 6.25 mg/kg/injection, schedule: Q01DX Z (ip), vehicle: carboxymethylcellulose (CMC)): 104 % of control
- T/C (dose: 12.5 mg/kg/injection, schedule: Q01DX Z (ip), vehicle: carboxymethylcellulose (CMC)): 154 % of control

SMILES: CCCNc1ncnc2[nH]ncc12
- T/C (dose: 5.0 mg/kg/injection, schedule: Q01DX Z (ip), vehicle: water): 96 % of control
- T/C (dose: 10.0 mg/kg/injection, schedule: Q01DX Z (ip), vehicle: water): 93 % of control
- T/C (dose: 20.0 mg/kg/injection, schedule: Q01DX Z (ip), vehicle: water): 120 % of control
- T/C (dose: 40.0 mg/kg/injection, schedule: Q01DX Z (ip), vehicle: water): 88 % of control and 112 % of control

SMILES: CC/C(=C(/CC)c1ccc(O)cc1)c1ccc(O)cc1
- T/C (dose: 31.25 mg/kg/injection, schedule: Q01DX Z (sc), vehicle: steriod suspending solution): 97 % of control
- T/C (dose: 62.5 mg/kg/injection, schedule: Q01DX Z (sc), vehicle: steriod suspending solution): 110 % of control
- T/C (dose: 125.0 mg/kg/injection, schedule: Q01DX Z (sc), vehicle: steriod suspending solution): 100 % of control
- T/C (dose: 250.0 mg/kg/injection, schedule: Q01DX Z (sc), vehicle: steriod suspending solution): 87 % of control

SMILES: CC(=O)N(C)C
- T/C [10]: 100 % of control
- T/C [11]: 94 % of control
- T/C [12]: 102 % of control
- T/C [13]: 109 % of control
- T/C (dose: 2000.0 mg/kg/injection, schedule: Q01DX Z (ip), vehicle: saline): 105 % of control
- T/C (dose: 4000.0 mg/kg/injection, schedule: Q01DX Z (ip), vehicle: saline): 154 % of control

SMILES: CCOC(=O)NP(=O)(N1CC1(C)C)N1CC1(C)C (centres undefined)
- T/C (dose: 62.5 mg/kg/injection, schedule: Q01DX Z (ip), vehicle: carboxymethylcellulose (CMC)): 95 % of control
- T/C (dose: 125.0 mg/kg/injection, schedule: Q01DX Z (ip), vehicle: carboxymethylcellulose (CMC)): 95 % of control
- T/C (dose: 250.0 mg/kg/injection, schedule: Q01DX Z (ip), vehicle: carboxymethylcellulose (CMC)): 97 % of control
- T/C (dose: 500.0 mg/kg/injection, schedule: Q01DX Z (ip), vehicle: carboxymethylcellulose (CMC)): 93 % of control
